Key:
pancreatin = experiment: Pancreatin stability; assay type: in vitro ADME, porcine; settings: gabapentin (2) released by 1% (w/v) pancreatin; prodrug 5 μM; pH 7.5; 37° C.; 60 min
Method: Pancreatin Stability: Stability studies were conducted by incubating prodrug (5 μM) with 1% (w/v) pancreatin (Sigma, P-1625, from porcine pancreas) in 0.025 M Tris buffer containing 0.5 M NaCl (pH 7.5) at 37° C. for 60 min. The reaction was stopped by addition of 2 volumes of methanol. After centrifugation at 14,000 rpm for 10 min, the supernatant was removed and analyzed by LC/MS/MS.

[1] = Pharmacokinetics of N-phthaloylglycine prodrug (61) in rats (Example 42); assay type: in vivo, rat; settings: oral (61) 240 mg/kg, post dosing
Method: The pharmacokinetics of the N-phthaloylglycine prodrug (61) is examined in rats. […] Serial blood samples are obtained over 24 hours following dosing and blood is processed for plasma by centrifugation. Plasma samples are stored at −80° C. until analyzed. Concentrations of N-phthaloylglycine or (61) in plasma samples are determined by LC/MS/MS.

[2] = In vitro enzymatic release in rat plasma; settings: substrate 2.0 μM, no cofactors, 37° C.
[3] = In vitro enzymatic release in rat liver S9; settings: Rat Liver S9 (0.5 mg/mL); substrate 2.0 μM; NADPH; 37° C.
[4] = In vitro enzymatic release in human intestine S9; settings: Human Intestine S9 (0.5 mg/mL); substrate 2.0 μM; NADPH; 37° C.
[5] = In vitro enzymatic release in human liver S9; settings: Human Liver S9 (0.5 mg/mL); substrate 2.0 μM; NADPH; 37° C.
Aminopeptidase 1 = target: T1, Aminopeptidase 1 (Streptomyces griseus subsp. griseus, UniProt P80561); experiment: Aminopeptidase stability; assay type: in vitro ADME; settings: substrate 5.0 μM, no cofactors, pH 8.0, 37° C.
T1 construct: purchased Sigma A-9934
Method: Aminopeptidase Stability: Aminopeptidase 1 (Sigma catalog # A-9934) was diluted in deionised water to a concentration of 856 units/mL. Stability studies were conducted by incubating prodrug (5 μM) with 0.856 units/mL aminopeptidase 1 in 50 mM Tris-HCl buffer at pH 8.0 and 37° C. Concentrations of intact prodrug and released drug were determined at zero time and 60 minutes using LC/MS/MS.
Concentrations of (2), (4), (7g) or Phe-Gabapentin in tissue extracts were determined by direct injection onto an API 2000 LC/MS/MS equipped with an Agilent 1100 binary pump and autosampler. Separation was achieved using a 3.5 μm Zorbax Ellipse XDB-C8 4.4×150 mm column heated to 45° C. during the analysis. The mobile phases were: 0.1% formic acid in water (A) and 0.1% formic acid in acetonitrile (B). The gradient condition was: 2% B for 0.5 min, increasing to 90% B in 2.0 min, maintained for 2.5 min and returning to 2% B for 2 min. A TurbolonSpray source was used on the API 2000. The analysis was performed in the positive ion mode and MRM transitions of 709.5/172.1 and 172.0/137.2 were used in the analysis of Cholyl-Phe-Gabapentin (7g) and gabapentin (2) respectively. Ten microliters of the sample extracts were injected. Peaks were integrated using Analyst quantitation software. The method was linear for (7g) or (2) over the concentration range 0.01 to 12.5 μg/mL and 0.002 to 2.5 μg/mL respectively.

[6] = Caco-2 homogenate S9 stability; assay type: in vitro ADME; settings: substrate 5.0 μM, no cofactors, 37° C.
Method: Caco-2 Homogenate S9 Stability. Caco-2 cells were grown for 21 days prior to harvesting. Culture medium was removed and cell monolayers were rinsed and scraped off into ice-cold 10 mM sodium phosphate/0.15 M potassium chloride, pH 7.4. Cells were lysed by sonication at 4° C. using a probe sonicator. Lysed cells were then transferred into 1.5 mL centrifuge vials and centrifuged at 9000 g for 20 min at 4° C. The resulting supernatant (Caco-2 cell homogenate S9 fraction) was aliquoted into 0.5 mL vials and stored at −80° C. until used.
For stability studies, prodrug (5 μM) was incubated in Caco-2 homogenate S9 fraction (0.5 mg protein per mL) for 60 min at 37° C. Concentrations of intact prodrug and released drug were determined at zero time and 60 minutes using LC/MS/MS.
Concentrations of (2), (4), (7g) or Phe-Gabapentin in tissue extracts were determined by direct injection onto an API 2000 LC/MS/MS equipped with an Agilent 1100 binary pump and autosampler. Separation was achieved using a 3.5 μm Zorbax Ellipse XDB-C8 4.4×150 mm column heated to 45° C. during the analysis. The mobile phases were: 0.1% formic acid in water (A) and 0.1% formic acid in acetonitrile (B). The gradient condition was: 2% B for 0.5 min, increasing to 90% B in 2.0 min, maintained for 2.5 min and returning to 2% B for 2 min. […] Peaks were integrated using Analyst quantitation software. […]

[7] = In vitro enzymatic release in human plasma; settings: substrate 2.0 μM, no cofactors, 37° C.
IBAT [8] = target: T2, IBAT (Homo sapiens, UniProt Q12908); experiment: Electrogenic transport in Xenopus oocytes expressing IBAT; assay type: cell-based; settings: relative to glycodeoxycholate
Excerpt: RNA preparation: Human IBAT and LBAT Transporter cDNAs were subcloned into a modified pGEM plasmid that contains 5′ and 3′ untranslated sequences from the Xenopus β-actin gene. These sequences increase RNA stability and protein expression. Plasmid cDNA was linearized and used as template for in vitro transcription (Epicentre Technologies transcription kit, 4:1 methylated:non-methylated GTP).
Xenopus oocyte isolation. Xenopus laevis frogs were anesthetized by immersion in Tricaine ([…] in deionized water) for 15 min. Oocytes were removed and digested in frog ringer solution (90 mM NaCl, 2 mM KCl, 1 mM MgCl2, 10 mM NaHEPES, pH 7.45, no CaCl2) with 1 mg/mL collagenase (Worthington Type 3) for 80-100 min with shaking. The oocytes were washed 6 times, and the buffer changed to frog ringer solution containing CaCl2 (1.8 mM). Remaining follicle cells were removed if necessary. Cells were incubated at 16° C., and each oocyte injected with […] RNA in […] solution.
Electrophysiology measurements. Transport currents were measured 2-14 days after injection, using a standard two-electrode electrophysiology set-up (Geneclamp 500 amplifier, Digidata 1320/PCLAMP software and ADInstruments hardware and software were used for signal acquisition). Electrodes ([…]) were microfabricated using a Sutter Instrument puller and filled with 3M KCl. The bath was directly grounded (transporter currents were less than 0.3 μA). Bath flow was controlled by an automated perfusion system (ALA Scientific Instruments, solenoid valves).
For transporter pharmacology, oocytes were clamped at −60 to −90 mV, and continuous current measurements acquired using PowerLab Software and an ADInstruments digitizer. Current signals were lowpass filtered at 20 Hz and acquired at 4-8 Hz. All bath and drug-containing solutions were frog ringers solution containing CaCl2. Drugs were applied for 10-30 seconds until the induced current reached a new steady-state level, followed by a control solution until baseline currents returned to levels that preceded drug application. The difference current (baseline subtracted from peak current during drug application) reflected the net movement of charge resulting from electrogenic transport and was directly proportional to tranport rate. Recordings were made from a single oocyte for up to 60 min, enabling 30-40 separate compounds to be tested per oocyte. […]. Using this normalization procedure Vmax (i.e. maximal induced current) for different compounds tested on different oocytes could be compared.

LBAT = target: T3, LBAT (Homo sapiens, UniProt Q14973); experiment: Inhibition of radiolabeled taurocholate uptake in LBAT-transfected CHO cells; assay type: cell-based; settings: radiolabeled competition assay in transporter-expressing CHO cells
T3 construct: expressed in transfected cells; host or cells: CHO cells
Method: (§1) CHO cells transfected with either the IBAT or LBAT transporter were seeded into 96-well microtiter plates at 100,000 cells/well in 100 μL DMEM containing 10% serum, glutamine and Penstrep. After overnight incubation the media was removed and test compound (25 μL) added at 2× the final desired concentration. Tritiated taurocholate (50,000 CPM/well) was diluted with cold substrate to a final concentration of 5 μM and 25 μL/well of this mixture was added to the plate. After incubating for 1 h at room temperature the solution was removed and the plate washed 4× with PBS at 4° C. 200 μL/well of scintillant is added and the plate then read in a Wallac microbeta counter. The inhibition data is processed by standard methods to calculate an inhibition constant Ki for the test compound.

IBAT [9] = target: T2, IBAT; experiment: Inhibition of radiolabeled taurocholate uptake in IBAT-transfected CHO cells; assay type: cell-based; parameters: expressed in transfected cells; host or cells: CHO cells; settings: radiolabeled competition assay in transporter-expressing CHO cells
Method: as §1

T2 sequence (Q12908 whole entry): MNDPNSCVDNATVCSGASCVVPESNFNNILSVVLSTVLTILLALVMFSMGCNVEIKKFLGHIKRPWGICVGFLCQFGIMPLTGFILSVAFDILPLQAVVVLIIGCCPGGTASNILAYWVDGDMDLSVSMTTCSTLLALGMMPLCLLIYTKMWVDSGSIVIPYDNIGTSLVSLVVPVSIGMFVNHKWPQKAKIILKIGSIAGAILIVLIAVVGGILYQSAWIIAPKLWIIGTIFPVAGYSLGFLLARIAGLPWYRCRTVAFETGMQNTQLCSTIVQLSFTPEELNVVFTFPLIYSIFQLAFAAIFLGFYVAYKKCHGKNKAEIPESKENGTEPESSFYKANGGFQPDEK
T3 sequence (Q14973 whole entry): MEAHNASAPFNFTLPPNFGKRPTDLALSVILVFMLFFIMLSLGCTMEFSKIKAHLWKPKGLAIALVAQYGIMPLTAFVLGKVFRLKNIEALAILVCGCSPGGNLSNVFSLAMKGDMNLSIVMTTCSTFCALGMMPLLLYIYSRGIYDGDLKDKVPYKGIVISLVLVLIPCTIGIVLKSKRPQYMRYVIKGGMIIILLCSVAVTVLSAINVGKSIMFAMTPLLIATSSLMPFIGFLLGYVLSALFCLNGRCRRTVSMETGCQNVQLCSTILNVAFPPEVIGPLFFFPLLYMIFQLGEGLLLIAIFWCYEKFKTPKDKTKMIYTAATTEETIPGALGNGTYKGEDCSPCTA
T1 sequence (P80561 46-329): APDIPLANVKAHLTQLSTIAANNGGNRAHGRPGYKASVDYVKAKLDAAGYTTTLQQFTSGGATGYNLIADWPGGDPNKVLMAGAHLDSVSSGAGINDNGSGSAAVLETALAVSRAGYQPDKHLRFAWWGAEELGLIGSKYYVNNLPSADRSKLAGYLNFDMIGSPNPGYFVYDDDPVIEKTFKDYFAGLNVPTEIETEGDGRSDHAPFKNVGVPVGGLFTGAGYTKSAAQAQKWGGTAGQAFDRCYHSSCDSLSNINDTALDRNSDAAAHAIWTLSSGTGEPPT

**Q.** Which “% (2) Released” value (pancreatin) does the source give for `CC(CCC(=O)NC(Cc1ccc(O)cc1)C(=O)NCC1(CC(=O)O)CCCCC1)C1CCC2C3C(O)CC4CC(O)CCC4(C)C3CC(O)C12C` (stereo not shown) [(7h), Cholyl-Tyr-Gabapentin] here?
**A.** 40%

**Q.** With `N[C@@H](CCC(=O)O)C(=O)N[C@@H](CSC(=O)CN1C(=O)c2ccccc2C1=O)C(=O)NCC(=O)O` [Compound (61), H-Glu-Cys(N-phthaloylglycyl)-Gly-OH] as the molecule, how does the “time at which liberated N-phthaloylglycine is apparent in plasma” value [1] read?
**A.** ≤ 30 min

**Q.** Which results are given for `NC(Cc1ccccc1)C(=O)NCC1(CC(=O)O)CCCCC1` (stereo not shown) [Phe-Gabapentin]?
**A.** Percent of Gabapentin Released in 60 min [2]: 19%; Percent of Gabapentin Released in 60 min [3]: 1%; Percent of Gabapentin Released in 60 min [4]: 5%; Percent of Gabapentin Released in 60 min [5]: 1%; Percent of Gabapentin Released in 60 min (Aminopeptidase 1): 24%; Percent of Gabapentin Released in 60 min [6]: 21%

**Q.** For “Cholyl-Dopa-(4-pivaloyloxymethyl) [(21)]”, which “Percent of (20) Released in 60 min” value [7] is on record?
**A.** 90%

**Q.** What about the “Percent of (20) Released in 60 min” value [2] of the same molecule?
**A.** 75%

**Q.** What about the “% Max. (GDC)” value (IBAT [8]) of the same molecule?
**A.** 104%

**Q.** What about the “Percent of (20) Released in 60 min” value [3] of the same molecule?
**A.** 35%

**Q.** And the “Percent of (20) Released in 60 min” value [4]?
**A.** 95%

**Q.** What about the IC50 (LBAT) of the same molecule?
**A.** 0.2 µM

**Q.** And the IC50 (IBAT [9])?
**A.** 91 µM

**Q.** What about the “Percent of (20) Released in 60 min” value [5] of the same molecule?
**A.** 70%
